Experimental data as given in paper PMC5856786, “A DHODH inhibitor increases p53 synthesis and enhances tumor cell killing by p53 degradation blockage” (Nature Communications, 2018).

Tests used:
[1] = test system: DNA damage response markers in ARN8 cells; test: Western blotting of DNA damage response markers; format: cell-based, human
Description: Protein extracts were prepared in 1× LDS sample buffer (Invitrogen) with 100 mM DTT and separated and transferred using the Invitrogen western blotting system except in Supplementary Fig. 1c where the BioRad western blotting system was used. HRP-conjugated secondary antibodies were obtained from Dako (#P016102 and #P0211702) or Santa Cruz (#SC-2020). Immunofluorescence was performed by fixing cells in 4% paraformaldehyde freshly made in PBS for 10 min at 37 °C. Following fixation, cells were permeabilized in 0.15% Triton X-100 for 1–2 min at 37 °C followed by staining with the indicated antibodies. Images were taken using Olympus IX-71 microscope controlled by DeltaVision SoftWoRx. […]
Protein levels were analyzed by western blotting and relative p53 levels quantified using […]
for 1 h prior to the addition of hydroxyurea (HU) or vehicle control for a further 3 h and analyzed by western blotting. gapdh was used as loading control. d) ARN8 cells were treated […]
(Sigma, #N9162) for a further 2 h. Samples were lysed in 2 × LDS buffer (Invitrogen) and levels of P-ATM and ATM determined. α-tubulin was detected for loading control. e) ARN8 […]
of NCS for a further 2 h. Samples were lysed as in d) and levels of P-Ser15 p53 and γ-H2AX were determined. gapdh was used as loading control. f−g) ARN8 cells were treated with […]
(Ser 345) and chk1 were detected. […]

CDK1/CycE1 = CDK1/CycE1 (Homo sapiens, UniProt P06493); test: biochemical; design: radiometric 33PanQinase protein kinase activity assay, CDK/cyclin panel, per cent remaining activity; conditions: read-out: HZ00 10 µM Average (% remaining activity)
Text: (§1) Supplementary Table 1. In vitro inhibition (% remaining activity) of cyclin-dependent
(§2) ProQinase GmbH (Freiburg, Germany) using a radiometric protein kinase assay
(§3) (33PanQinase® Activity Assay).
(§4) (1 picture or pasted object on this page, not shown here) 32 Supplementary Table 1. In vitro inhibition (% remaining activity) of cyclin-dependent kinases (CDKs).

CDK2/CycA2 = CDK2/CycA2 (Homo sapiens, UniProt P24941); test: biochemical; design: radiometric 33PanQinase protein kinase activity assay, CDK/cyclin panel, per cent remaining activity; conditions: read-out: HZ00 10 µM Average (% remaining activity)
Text: as §1, §2, §3, §4

CDK9/CycK = CDK9/CycK (Homo sapiens, UniProt P50750); test: biochemical; design: radiometric 33PanQinase protein kinase activity assay, CDK/cyclin panel, per cent remaining activity; conditions: read-out: HZ00 10 µM Average (% remaining activity)
Text: as §1, §2, §3, §4

CDK5/p25NCK = biological target: T1, CDK5/p25NCK (Homo sapiens, UniProt Q00535); test: biochemical; design: radiometric 33PanQinase protein kinase activity assay, CDK/cyclin panel, per cent remaining activity; conditions: read-out: HZ00 10 µM Average (% remaining activity)
T1 construct: p25
Text: as §1, §2, §3, §4

CDK1/CycA2 = CDK1/CycA2 (Homo sapiens, UniProt P06493); test: biochemical; design: radiometric 33PanQinase protein kinase activity assay, CDK/cyclin panel, per cent remaining activity; conditions: read-out: HZ00 10 µM Average (% remaining activity)
Text: as §1, §2, §3, §4

CDK5/p35NCK = biological target: T2, CDK5/p35NCK (Homo sapiens, UniProt Q00535); test: biochemical; design: radiometric 33PanQinase protein kinase activity assay, CDK/cyclin panel, per cent remaining activity; conditions: read-out: HZ00 10 µM Average (% remaining activity)
T2 construct: p35
Text: as §1, §2, §3, §4

CDK2/CycE1 = CDK2/CycE1 (Homo sapiens, UniProt P24941); test: biochemical; design: radiometric 33PanQinase protein kinase activity assay, CDK/cyclin panel, per cent remaining activity; conditions: read-out: HZ00 10 µM Average (% remaining activity)
Text: as §1, §2, §3, §4

CDK4/CycD3 = CDK4/CycD3 (Homo sapiens, UniProt P11802); test: biochemical; design: radiometric 33PanQinase protein kinase activity assay, CDK/cyclin panel, per cent remaining activity; conditions: read-out: HZ00 10 µM Average (% remaining activity)
Text: as §1, §2, §3, §4

CDK6/CycD1 = CDK6/CycD1 (Homo sapiens, UniProt Q00534); test: biochemical; design: radiometric 33PanQinase protein kinase activity assay, CDK/cyclin panel, per cent remaining activity; conditions: read-out: HZ00 10 µM Average (% remaining activity)
Text: as §1, §2, §3, §4

CDK4/CycD1 = CDK4/CycD1 (Homo sapiens, UniProt P11802); test: biochemical; design: radiometric 33PanQinase protein kinase activity assay, CDK/cyclin panel, per cent remaining activity; conditions: read-out: HZ00 10 µM Average (% remaining activity)
Text: as §1, §2, §3, §4

CDK8/CycC = CDK8/CycC (Homo sapiens, UniProt P49336); test: biochemical; design: radiometric 33PanQinase protein kinase activity assay, CDK/cyclin panel, per cent remaining activity; conditions: read-out: HZ00 10 µM Average (% remaining activity)
Text: as §1, §2, §3, §4

PCTAIRE1/CycY = biological target: T3, PCTAIRE1/CycY (Homo sapiens, UniProt Q00536); test: biochemical; design: radiometric 33PanQinase protein kinase activity assay, CDK/cyclin panel, per cent remaining activity; conditions: read-out: HZ00 10 µM Average (% remaining activity)
T3 construct: gene CDK16
Text: as §1, §2, §3, §4

CDK3/CycE1 = CDK3/CycE1 (Homo sapiens, UniProt Q00526); test: biochemical; design: radiometric 33PanQinase protein kinase activity assay, CDK/cyclin panel, per cent remaining activity; conditions: read-out: HZ00 10 µM Average (% remaining activity)
Text: as §1, §2, §3, §4

CDK1/CycB1 = CDK1/CycB1 (Homo sapiens, UniProt P06493); test: biochemical; design: radiometric 33PanQinase protein kinase activity assay, CDK/cyclin panel, per cent remaining activity; conditions: read-out: HZ00 10 µM Average (% remaining activity)
Text: as §1, §2, §3, §4

T3 sequence (Q00536 whole entry): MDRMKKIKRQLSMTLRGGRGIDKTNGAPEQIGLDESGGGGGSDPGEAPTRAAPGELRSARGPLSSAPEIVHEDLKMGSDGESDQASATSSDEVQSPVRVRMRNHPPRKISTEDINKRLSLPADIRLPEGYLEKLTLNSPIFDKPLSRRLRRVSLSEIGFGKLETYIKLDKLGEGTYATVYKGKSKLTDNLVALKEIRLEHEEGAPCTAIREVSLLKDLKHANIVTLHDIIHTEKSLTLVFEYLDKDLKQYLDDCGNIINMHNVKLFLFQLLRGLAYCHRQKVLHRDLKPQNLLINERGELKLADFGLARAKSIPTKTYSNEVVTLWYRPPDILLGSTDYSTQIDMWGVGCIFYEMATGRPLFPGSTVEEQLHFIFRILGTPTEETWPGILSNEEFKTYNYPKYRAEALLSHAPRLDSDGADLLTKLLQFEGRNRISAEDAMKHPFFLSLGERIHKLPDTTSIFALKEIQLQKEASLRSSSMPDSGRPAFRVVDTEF
T3 sequence (Q8ND76 whole entry partner): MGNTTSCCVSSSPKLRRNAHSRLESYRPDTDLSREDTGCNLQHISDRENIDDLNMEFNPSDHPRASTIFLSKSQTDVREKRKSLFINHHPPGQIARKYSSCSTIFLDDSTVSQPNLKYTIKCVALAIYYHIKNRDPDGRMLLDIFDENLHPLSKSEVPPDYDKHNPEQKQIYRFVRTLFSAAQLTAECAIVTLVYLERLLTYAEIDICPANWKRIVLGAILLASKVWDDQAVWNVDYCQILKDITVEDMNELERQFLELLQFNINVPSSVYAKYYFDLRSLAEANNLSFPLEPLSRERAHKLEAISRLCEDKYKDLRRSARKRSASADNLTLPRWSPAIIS
Sequence of CDK3/CycE1 (Q00526 whole entry): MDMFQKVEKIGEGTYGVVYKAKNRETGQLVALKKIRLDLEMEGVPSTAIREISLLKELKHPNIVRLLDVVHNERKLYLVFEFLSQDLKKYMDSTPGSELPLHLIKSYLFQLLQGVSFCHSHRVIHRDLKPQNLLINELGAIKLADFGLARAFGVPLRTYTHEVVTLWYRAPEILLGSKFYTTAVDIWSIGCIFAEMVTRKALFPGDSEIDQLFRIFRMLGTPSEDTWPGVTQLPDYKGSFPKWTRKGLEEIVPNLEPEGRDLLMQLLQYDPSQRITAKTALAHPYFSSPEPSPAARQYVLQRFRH
Sequence of CDK3/CycE1 (P24864 whole entry partner): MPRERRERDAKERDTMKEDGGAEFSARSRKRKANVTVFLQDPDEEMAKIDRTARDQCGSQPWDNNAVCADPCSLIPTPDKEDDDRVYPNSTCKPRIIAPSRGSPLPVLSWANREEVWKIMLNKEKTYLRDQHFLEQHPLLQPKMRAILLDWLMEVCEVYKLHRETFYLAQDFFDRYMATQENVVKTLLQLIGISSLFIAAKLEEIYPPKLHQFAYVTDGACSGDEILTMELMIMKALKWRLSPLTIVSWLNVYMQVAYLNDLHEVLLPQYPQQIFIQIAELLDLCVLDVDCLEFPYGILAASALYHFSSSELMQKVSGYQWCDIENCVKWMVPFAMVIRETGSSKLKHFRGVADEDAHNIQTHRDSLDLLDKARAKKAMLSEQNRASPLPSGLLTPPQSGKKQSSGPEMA
Sequence of CDK8/CycC (P49336 whole entry): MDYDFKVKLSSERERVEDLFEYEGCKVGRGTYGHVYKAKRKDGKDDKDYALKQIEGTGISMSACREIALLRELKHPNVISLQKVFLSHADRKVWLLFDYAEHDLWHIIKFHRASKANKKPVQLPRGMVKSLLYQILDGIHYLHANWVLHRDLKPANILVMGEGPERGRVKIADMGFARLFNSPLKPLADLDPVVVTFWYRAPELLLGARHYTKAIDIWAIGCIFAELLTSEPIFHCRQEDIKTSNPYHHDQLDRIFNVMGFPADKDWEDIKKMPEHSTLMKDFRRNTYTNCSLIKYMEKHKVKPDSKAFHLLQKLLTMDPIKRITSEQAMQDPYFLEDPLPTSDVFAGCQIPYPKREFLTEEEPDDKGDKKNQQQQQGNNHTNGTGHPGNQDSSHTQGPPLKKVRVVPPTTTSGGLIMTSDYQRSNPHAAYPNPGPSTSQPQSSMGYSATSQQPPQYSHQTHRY
Sequence of CDK8/CycC (P24863 whole entry partner): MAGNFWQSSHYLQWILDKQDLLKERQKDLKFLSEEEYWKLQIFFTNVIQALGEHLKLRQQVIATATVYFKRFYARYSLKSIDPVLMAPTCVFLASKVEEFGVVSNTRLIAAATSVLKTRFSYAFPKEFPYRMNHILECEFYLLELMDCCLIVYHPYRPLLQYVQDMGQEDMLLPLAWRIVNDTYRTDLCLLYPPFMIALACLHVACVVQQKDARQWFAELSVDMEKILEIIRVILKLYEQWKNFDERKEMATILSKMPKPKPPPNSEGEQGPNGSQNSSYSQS
Sequence of CDK6/CycD1 (Q00534 whole entry): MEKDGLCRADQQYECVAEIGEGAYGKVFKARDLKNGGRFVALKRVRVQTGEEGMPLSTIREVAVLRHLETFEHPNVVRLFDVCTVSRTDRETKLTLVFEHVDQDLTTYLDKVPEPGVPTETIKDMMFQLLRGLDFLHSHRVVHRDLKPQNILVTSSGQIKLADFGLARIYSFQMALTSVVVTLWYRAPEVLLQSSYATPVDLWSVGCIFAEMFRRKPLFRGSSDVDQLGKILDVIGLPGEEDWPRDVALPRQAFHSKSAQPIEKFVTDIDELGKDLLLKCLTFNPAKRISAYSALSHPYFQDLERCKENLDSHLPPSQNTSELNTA
Sequence of CDK6/CycD1 (P24385 whole entry partner): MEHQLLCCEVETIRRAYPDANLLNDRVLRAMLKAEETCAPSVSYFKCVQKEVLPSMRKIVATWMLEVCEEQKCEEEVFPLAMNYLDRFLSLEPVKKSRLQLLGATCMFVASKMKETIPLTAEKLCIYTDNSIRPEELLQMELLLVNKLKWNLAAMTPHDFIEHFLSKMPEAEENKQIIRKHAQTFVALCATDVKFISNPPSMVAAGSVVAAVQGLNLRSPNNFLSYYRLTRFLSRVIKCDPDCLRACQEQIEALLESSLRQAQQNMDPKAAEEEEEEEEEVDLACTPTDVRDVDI
T1 sequence (Q00535 whole entry): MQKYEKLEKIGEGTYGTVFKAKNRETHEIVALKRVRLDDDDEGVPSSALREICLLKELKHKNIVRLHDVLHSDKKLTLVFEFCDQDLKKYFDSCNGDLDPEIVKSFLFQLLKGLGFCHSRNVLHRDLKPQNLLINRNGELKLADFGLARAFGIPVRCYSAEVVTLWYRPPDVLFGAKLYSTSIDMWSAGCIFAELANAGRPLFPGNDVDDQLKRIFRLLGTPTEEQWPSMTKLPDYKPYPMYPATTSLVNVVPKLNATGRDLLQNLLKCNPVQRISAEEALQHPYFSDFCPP
T1 sequence (Q15078 whole entry partner): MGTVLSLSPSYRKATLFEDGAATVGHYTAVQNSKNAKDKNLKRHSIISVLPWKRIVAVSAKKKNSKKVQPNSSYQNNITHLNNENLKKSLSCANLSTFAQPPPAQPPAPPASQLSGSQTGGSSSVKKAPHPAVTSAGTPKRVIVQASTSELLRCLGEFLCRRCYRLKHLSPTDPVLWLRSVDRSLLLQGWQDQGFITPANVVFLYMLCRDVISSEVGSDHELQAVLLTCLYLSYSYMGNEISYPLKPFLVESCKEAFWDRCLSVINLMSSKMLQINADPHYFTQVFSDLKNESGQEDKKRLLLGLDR
T2 sequence (Q00535 whole entry): as the sequence (Q00535 whole entry) above
T2 sequence (Q15078 whole entry partner): as the sequence (Q15078 whole entry partner) above
Sequence of CDK9/CycK (P50750 whole entry): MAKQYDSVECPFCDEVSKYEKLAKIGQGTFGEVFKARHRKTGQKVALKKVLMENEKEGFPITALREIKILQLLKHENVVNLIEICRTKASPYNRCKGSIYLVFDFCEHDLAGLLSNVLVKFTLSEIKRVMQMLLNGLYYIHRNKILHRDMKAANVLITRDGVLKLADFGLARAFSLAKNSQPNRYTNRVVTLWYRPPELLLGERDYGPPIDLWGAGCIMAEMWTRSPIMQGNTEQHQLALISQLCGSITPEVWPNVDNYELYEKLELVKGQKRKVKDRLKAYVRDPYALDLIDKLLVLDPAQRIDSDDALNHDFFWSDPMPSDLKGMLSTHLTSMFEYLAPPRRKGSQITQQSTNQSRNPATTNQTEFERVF
Sequence of CDK9/CycK (O75909 whole entry partner): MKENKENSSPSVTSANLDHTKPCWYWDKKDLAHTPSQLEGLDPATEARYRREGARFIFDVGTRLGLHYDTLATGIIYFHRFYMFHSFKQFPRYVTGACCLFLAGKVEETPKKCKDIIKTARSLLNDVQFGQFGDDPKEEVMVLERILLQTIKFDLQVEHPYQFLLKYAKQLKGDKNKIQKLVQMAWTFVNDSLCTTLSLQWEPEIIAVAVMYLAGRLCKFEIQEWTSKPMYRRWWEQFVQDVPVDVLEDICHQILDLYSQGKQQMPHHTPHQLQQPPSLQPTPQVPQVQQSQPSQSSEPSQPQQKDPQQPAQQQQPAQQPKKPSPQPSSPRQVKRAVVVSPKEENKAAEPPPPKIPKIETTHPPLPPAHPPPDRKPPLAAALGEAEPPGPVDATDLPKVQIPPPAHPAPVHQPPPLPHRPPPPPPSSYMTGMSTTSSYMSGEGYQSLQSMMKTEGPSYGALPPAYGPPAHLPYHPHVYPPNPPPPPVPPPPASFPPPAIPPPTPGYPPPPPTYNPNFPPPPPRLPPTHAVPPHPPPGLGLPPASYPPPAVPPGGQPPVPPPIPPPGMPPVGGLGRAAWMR

O=C(NC1CCCc2c1cnn2-c1ccccc1F)c1ccccn1 (stereo not drawn) [HZ00]
induction of DNA damage response markers [1]: did not observe any induction | remaining activity at 10 µM (CDK1/CycE1): 101% | remaining activity at 10 µM (CDK2/CycA2): 96% | remaining activity at 10 µM (CDK9/CycK): 100% | remaining activity at 10 µM (CDK5/p25NCK): 104% | remaining activity at 10 µM (CDK1/CycA2): 89.1% | remaining activity at 10 µM (CDK5/p35NCK): 105% | remaining activity at 10 µM (CDK2/CycE1): 102% | remaining activity at 10 µM (CDK4/CycD3): 89.2% | remaining activity at 10 µM (CDK6/CycD1): 103% | remaining activity at 10 µM (CDK4/CycD1): 104% | remaining activity at 10 µM (CDK8/CycC): 95.2% | remaining activity at 10 µM (PCTAIRE1/CycY): 103% | remaining activity at 10 µM (CDK3/CycE1): 96.6% | remaining activity at 10 µM (CDK1/CycB1): 104%
